{
  "source": "paper PMC4844649",
  "about": "“A first-in-Asian phase 1 study to evaluate safety, pharmacokinetics and clinical activity of VS-6063, a focal adhesion kinase (FAK) inhibitor in Japanese patients with advanced solid tumors” (Cancer Chemotherapy and Pharmacology, 2016)",
  "key": {"[1]": {"test": "24-h urine collection, elimination of VS-6063 and metabolites", "type": "in vivo, human", "details": "all dose cohorts", "description": "To assess the elimination of VS-6063 and its potential metabolites, total 24-h urine output was to be collected on Cycle 1 Day 1 and Cycle 1 Day 15 in conjunction with PK sampling."}, "[2]": {"test": "phase 1 plasma pharmacokinetics, Cycle 1 Days 1 and 15", "type": "in vivo, human", "details": "for V z, individual values: Day 15, N = 2, individual values are presented; for half-life / Cmax / AUC(0-t) / Tmax / AUC(0-inf): human, plasma; for AUC(0-t): read-out: AUC0–12h, GM (CV %)", "procedure": "Pharmacokinetic samples were to be collected for determination of VS-6063 concentration and potential metabolites at the time points of Pre-dose (within 30 min of VS-6063 dosing), postdose (15 min, 30 min, and 1, 2, 4, 8, 12, and 24 h after VS-6063 administration) during Cycle 1 on Days 1 and 15. The analytical laboratory measured plasma concentrations using a validated method. Phoenix WinNonlin (v 6.3, Pharsight Inc., Mountain View, CA) was used to estimate all pharmacokinetic parameters using the non-compartmental analysis tool and the plasma model. Cmax and Tmax were determined by direct assessment (no calculations) of the concentration versus time data. All AUC calculations followed the linear trapezoidal rule. As data permitted, the terminal elimination rate constant (lambda z, λz) for VS-6063 data was calculated. Lambda z was determined by the slope of the regression line of the natural log transformed concentrations versus time with at least three data points not including the Cmax and a correlation coefficient (R^2) of regression >0.90. In instances where the λz range was not at least twofold greater than the calculated half-life, the resulting values (AUCINF, CL/F and Vz/F) were deemed unreliable and were not reported, although the half-life will be calculated and reported if the λz range met the R^2 requirements. The following PK parameters were to be calculated: oral clearance (CL/F), maximum concentration (Cmax), Tmax, half-life (T1/2), area under the curve (AUC), and other relevant parameters."}, "other nontarget kinases": {"system": "other nontarget kinases", "details": "background statement, no reference given; cited from earlier work"}, "[3]": {"details": "basis of the BID schedule; first-in-human experience; cited from earlier work"}, "[4]": {"system": "advanced solid tumor malignancies", "test": "antitumor activity by RECIST v1.1", "type": "in vivo, human", "procedure": "This was a phase 1, open-label, dose-escalation study to evaluate the safety and PK of VS-6063, a FAK inhibitor in Japanese subjects with advanced solid tumor malignancies. This study was expected to enroll up to 18 evaluable subjects with non-hematologic malignancies if 6 subjects were assigned at each of the 3 planned dose levels of 200, 400, and 600 mg BID. VS-6063 was administered orally, BID, in continuous 21 day cycles. Subject enrollment proceeded according to a standard 3 + 3 design. In the absence of DLT, each subject received oral VS-6063 (BID) for a minimum of 21 days of continuous daily dosing (1 cycle) and could continue to receive additional cycles of study treatment until disease progression was documented or other treatment discontinuation criteria were met. All patients within a cohort were required to complete 1 cycle (21 days) of dosing with <1 of 3 or <2 of 6 subjects experiencing a DLT prior to escalation to the next dose level in a new cohort. Three subjects were to be treated at each dose level until the first instance of DLT, after which up to 6 subjects were to be treated at that dose level. […] The MTD was defined as the highest dose level studied at which <1 subject out of 3 or <2 subjects out of 6 experienced a DLT. The RP2D was to be determined in discussion among the sponsor, medical monitor, and investigators. Observations related to PK and any VS-6063-related toxicities were included in the rationale supporting the RP2D. Safety and tolerability was assessed by the incidence and severity of AEs as determined by National Cancer Institute (NCI) Common Terminology Criteria for Adverse Events (CTCAE v4.03). The antitumor activity of study treatment was assessed according to the Response Evaluation Criteria in Solid Tumors (RECIST v1.1)."}, "recombinant human FAK": {"system": "recombinant human FAK", "details": "in vitro; background statement, no reference given; read-out: IC50, inhibition of recombinant human FAK activity; cited from earlier work"}, "recombinant human Pyk2": {"system": "recombinant human Pyk2", "details": "in vitro; background statement, no reference given; read-out: IC50, inhibition of recombinant human Pyk2 activity; cited from earlier work"}, "UGT1A1": {"system": "UGT1A1", "details": "in vitro; no reference given; cited from earlier work"}, "[5]": {"details": "preclinical; no reference given; cited from earlier work"}, "CYP 2C, 2D, 3A": {"system": "CYP 2C, 2D, 3A", "details": "preclinical evidence; no reference given; cited from earlier work"}, "[6]": {"details": "po, 200 mg, 200 mg BID oral, n = 3, Day 1"}, "[7]": {"details": "po, 200 mg, 200 mg BID oral, n = 3, Day 15"}, "[8]": {"details": "po, 400 mg, 400 mg BID oral, n = 3, Day 1"}, "[9]": {"details": "po, 400 mg, 400 mg BID oral, n = 3, Day 15"}, "[10]": {"details": "po, 600 mg, 600 mg BID oral, n = 3, Day 1"}, "[11]": {"details": "po, 600 mg, 600 mg BID oral, n = 3, Day 15"}},
  "note": "Where “and” joins values, the source holds several entries; their conditions need not be identical. Equal values may be shown once. Entries after “also recorded” stand apart in the source; their conditions may differ. Read-outs that look alike come from different tables or passages of the source.",
  "data": [
    {"molecule": "CNC(=O)c1ccc(Nc2ncc(C(F)(F)F)c(NCc3nccnc3N(C)S(C)(=O)=O)n2)cc1", "note": "[VS-6063, defactinib]", "values": [
      {"measurement": "detection in urine", "setting": "[1]", "value": "detected in the urine of all patients"},
      {"measurement": "amount in urine, percent relative to the total dose administered, range", "setting": "[1]; 24-h urine", "value": "0.0439 to 0.356", "unit": "%"},
      {"measurement": "CL renal", "setting": "[1]; human, oral, 24-h urine, Days 1 and 15, read-out: mean renal clearance (CLr), range", "value": "1.43 to 2.98", "unit": "mL/min"},
      {"measurement": "V z, individual values", "setting": "[2]; 200 mg BID oral", "value": "334 L and 99.6 L"},
      {"measurement": "exposure compared with that previously reported in non-Japanese subjects", "setting": "[2]; 400 mg BID (RP2D)", "value": "comparable; also recorded: consistent with previously reported data in non-Japanese patients; also recorded: comparable to that previously reported in non-Japanese patients"},
      {"measurement": "V z, individual values", "setting": "[2]; 600 mg BID oral", "value": "158 L and 3060 L"},
      {"measurement": "increase in exposure at doses above 400 mg BID", "setting": "[2]; 600 mg versus 400 mg BID", "value": "did not result in a significant increase in VS-6063 exposure"},
      {"measurement": "dose proportionality of plasma exposure (Cmax and AUC)", "setting": "[2]; 200–600 mg BID", "value": "less than dose proportional"},
      {"measurement": "half-life", "setting": "[2]; oral, 200–600 mg BID, Days 1 and 15, read-out: median half-life values, range across all dose regimens and both PK study days", "value": "138 to 258", "unit": "min"},
      {"measurement": "Cmax", "setting": "[2]; [6]", "value": 630, "unit": "ng/mL"},
      {"measurement": "AUC(0-t)", "setting": "[2]; [6]", "value": 3780, "unit": "ng·h/mL"},
      {"measurement": "Tmax", "setting": "[2]; po, 200 mg, 200 mg BID oral, n = 3, Day 1, read-out: T max, median (range)", "value": 2, "unit": "h"},
      {"measurement": "half-life", "setting": "[2]; po, 200 mg, 200 mg BID oral, n = 3, Day 1, read-out: t 1/2, median (range) (converted)", "value": 258, "unit": "min"},
      {"measurement": "Cmax", "setting": "[2]; [7]", "value": 930, "unit": "ng/mL"},
      {"measurement": "AUC(0-t)", "setting": "[2]; [7]", "value": 6240, "unit": "ng·h/mL"},
      {"measurement": "Tmax", "setting": "[2]; po, 200 mg, 200 mg BID oral, n = 3, Day 15, read-out: T max, median (range)", "value": 2, "unit": "h"},
      {"measurement": "half-life", "setting": "[2]; po, 200 mg, 200 mg BID oral, n = 3, Day 15, read-out: t 1/2, median (range) (converted)", "value": 177, "unit": "min"},
      {"measurement": "Cmax", "setting": "[2]; [8]", "value": 670, "unit": "ng/mL"},
      {"measurement": "AUC(0-t)", "setting": "[2]; [8]", "value": 3370, "unit": "ng·h/mL"},
      {"measurement": "Tmax", "setting": "[2]; po, 400 mg, 400 mg BID oral, n = 3, Day 1, read-out: T max, median (range)", "value": 2, "unit": "h"},
      {"measurement": "half-life", "setting": "[2]; po, 400 mg, 400 mg BID oral, n = 3, Day 1, read-out: t 1/2, median (range) (converted)", "value": 147, "unit": "min"},
      {"measurement": "Cmax", "setting": "[2]; [9]", "value": 960, "unit": "ng/mL"},
      {"measurement": "AUC(0-t)", "setting": "[2]; [9]", "value": 5710, "unit": "ng·h/mL"},
      {"measurement": "Tmax", "setting": "[2]; po, 400 mg, 400 mg BID oral, n = 3, Day 15, read-out: T max, median (range)", "value": 2, "unit": "h"},
      {"measurement": "half-life", "setting": "[2]; po, 400 mg, 400 mg BID oral, n = 3, Day 15, read-out: t 1/2, median (range) (converted)", "value": 180, "unit": "min"},
      {"measurement": "Cmax", "setting": "[2]; [10]", "value": 610, "unit": "ng/mL"},
      {"measurement": "AUC(0-t)", "setting": "[2]; [10]", "value": 2680, "unit": "ng·h/mL"},
      {"measurement": "Tmax", "setting": "[2]; po, 600 mg, 600 mg BID oral, n = 3, Day 1, read-out: T max, median (range)", "value": 2, "unit": "h"},
      {"measurement": "half-life", "setting": "[2]; po, 600 mg, 600 mg BID oral, n = 3, Day 1, read-out: t 1/2, median (range) (converted)", "value": 167, "unit": "min"},
      {"measurement": "Cmax", "setting": "[2]; [11]", "value": 980, "unit": "ng/mL"},
      {"measurement": "AUC(0-t)", "setting": "[2]; [11]", "value": 4880, "unit": "ng·h/mL"},
      {"measurement": "Tmax", "setting": "[2]; po, 600 mg, 600 mg BID oral, n = 3, Day 15, read-out: T max, median (range)", "value": 2, "unit": "h"},
      {"measurement": "half-life", "setting": "[2]; po, 600 mg, 600 mg BID oral, n = 3, Day 15, read-out: t 1/2, median (range) (converted)", "value": 136, "unit": "min"},
      {"measurement": "Tmax", "setting": "[2]; po, oral doses of 200–600 mg BID, all cohorts, read-out: Tmax range", "value": "0.5 to 4", "unit": "h"},
      {"measurement": "Tmax", "setting": "[2]; po, oral doses of 200–600 mg BID, all cohorts, read-out: median Tmax", "value": 2, "unit": "h"},
      {"measurement": "AUC(0-inf)", "setting": "[2]; 200 mg BID oral, n = 3, Day 1", "value": 4390, "unit": "ng·h/mL"},
      {"measurement": "AUC(0-inf)", "setting": "[2]; 400 mg BID oral, n = 3, Day 1", "value": 3840, "unit": "ng·h/mL"},
      {"measurement": "AUC(0-inf)", "setting": "[2]; 600 mg BID oral, n = 3, Day 1", "value": 3000, "unit": "ng·h/mL"},
      {"measurement": "selectivity for FAK and Pyk2 over other nontarget kinases", "setting": "other nontarget kinases", "value": "more than 100 fold"},
      {"measurement": "observed human half-life", "setting": "[3]", "value": 9.0, "unit": "h"},
      {"measurement": "median time to disease progression, range across dose cohorts", "setting": "[4]; 200, 400, 600 mg cohorts", "value": "61 to 64", "unit": "days"},
      {"measurement": "objective radiographic responses", "setting": "[4]; 200–600 mg BID", "value": "No objective radiographic responses were observed"},
      {"measurement": "best response overall: stable disease", "setting": "[4]; out of 9 subjects (33 %), 1 subject in each dose cohort", "value": 3, "unit": "subjects"},
      {"measurement": "durable stable disease", "setting": "[4]; two subjects (malignant mesothelioma 400 mg and rectal cancer 600 mg)", "value": "approximately 24 weeks"},
      {"measurement": "IC50", "setting": "recombinant human FAK", "value": 0.6, "unit": "nM"},
      {"measurement": "IC50", "setting": "recombinant human Pyk2", "value": 0.6, "unit": "nM"},
      {"measurement": "UGT1A1 inhibition", "setting": "UGT1A1", "value": "UGT1A1 inhibitors in vitro"},
      {"measurement": "potential target organs in toxicology studies", "setting": "[5]", "value": "liver and gall bladder, gastrointestinal tract, hematopoietic system, testes/epididymis, and cardiovascular system"},
      {"measurement": "potential for CYP 2C-, 2D- or 3A-mediated drug interactions", "setting": "CYP 2C, 2D, 3A", "value": "low potential"}
    ]}
  ]
}
